Laboratory results as given in ChEMBL document CHEMBL6074703, “BODIPYS Based Fluorescent Markers To Monitor Autophagic Lysosomes and Lipid Droplets in TNBC” (ACS Med Chem Lett, 2024).
The source made the active and inactive calls. The calls are words filed in the database; no cut-off is given here.

What was measured:
[1] = system: MDA-MB-231; experiment: Antiproliferative activity against human MDA-MB-231 cells assessed as reduction in cell viability measured after 48 hrs under light condition by MTT assay; type: functional, cell-based; conditions: MDA-MB-231, 48 h
[2] = system: MDA-MB-231; experiment: Antiproliferative activity against human MDA-MB-231 cells assessed as reduction in cell viability measured after 48 hrs under dark condition by MTT assay; type: functional, cell-based; conditions: MDA-MB-231, 48 h
[3] = Selectivity ratio of IC50 for human MDA-MB-231 cells assessed as reduction in cell viability measured after 48 hrs under dark condition in presence of chloroquine to IC50 human MDA-MB-231 cells assessed as reduction in cell viability measured after 48 hrs under light condition in presence of chloroquine; type: functional
[4] = Drug uptake in human MDA-MB-231 cells at 20 uM measured after 24 hrs by confocal microscopy based analysis; type: ADME, cell-based; conditions: mda-mb-231, 24 h
[5] = Drug localization in lysosome of human MDA-MB-231 cells assessed as colocalization at 20 uM incubated for 3 hrs by MDH staining based confocal microscopy analysis; type: ADME, subcellular; conditions: mda-mb-231, 3 h
[6] = system: MDA-MB-231; experiment: Antiproliferative activity against human MDA-MB-231 cells assessed as reduction in cell viability measured after 48 hrs under light condition in presence of chloroquine by MTT assay; type: functional, cell-based; conditions: MDA-MB-231, 48 h
[7] = Drug uptake in human MDA-MB-231 cells at 20 uM measured after 6 hrs by confocal microscopy based analysis; type: ADME, cell-based; conditions: mda-mb-231, 6 h
[8] = system: MDA-MB-231; experiment: Induction of ROS response in human MDA-MB-231 cells by measuring green fluorescence at 10 uM incubated for 3 hrs under light 24J/cm2 irradiation by H2DCFDA staining based confocal microscopy analysis; type: functional, cell-based
[9] = system: MDA-MB-231; experiment: Induction of autophagy in human MDA-MB-231 cells assessed as increase in calcium ion release in cytoplasm by measuring blue fluorescence at 10 uM incubated for 3 hrs followed by dark incubation by Fura-2 dye based confocal microscopy based analysis; type: functional, cell-based
[10] = Selectivity ratio of IC50 for human MDA-MB-231 cells assessed as reduction in cell viability measured after 48 hrs under dark condition to IC50 human MDA-MB-231 cells assessed as reduction in cell viability measured after 48 hrs under light condition; type: functional
[11] = system: MDA-MB-231; experiment: Antiproliferative activity against human MDA-MB-231 cells assessed as reduction in cell viability measured after 48 hrs under dark condition in presence of chloroquine by MTT assay; type: functional, cell-based; conditions: MDA-MB-231, 48 h
[12] = Drug localization in lysosome of human MDA-MB-231 cells assessed as colocalization at 20 uM incubated for 3 hrs by lyso-tracker blue staining based confocal microscopy analysis; type: ADME, subcellular; conditions: mda-mb-231, 3 h
[13] = system: MDA-MB-231; experiment: Induction of ROS response in human MDA-MB-231 cells by measuring green fluorescence at 10 uM incubated for 3 hrs dark condition by H2DCFDA staining based confocal microscopy analysis; type: functional, cell-based
[14] = system: MDA-MB-231; experiment: Induction of autophagy in human MDA-MB-231 cells assessed as increase in green fluorescence at 20 uM under light irradiation by confocal microscopy based analysis; type: functional, cell-based

IC50 [1]	IC50 [2]	Drug uptake [4]	Drug uptake [5]	IC50 [6]	Drug uptake [7]	IC50 [11]	Drug uptake [12]	SMILES	Ratio IC50 [3]	Activity [8]	Activity [9]	Ratio IC50 [10]	Activity [13]	Activity [14]
> 50 µM	> 50 µM							CCN(CC)CCCC(C)Nc1ccnc2cc(Cl)ccc12 (centres undefined) [CHLOROQUINE]						
17.1 µM	> 50 µM	Active	Active	5.57 µM	Active	> 50 µM	Active	CCCCn1c2ccccc2c2cc(/C=C/c3ccc4c(c3)c3cc(C5=C6C=CC=[N+]6[B-](F)(F)n6cccc65)ccc3n4CCCC)ccc21	>8.97	Active	Active	>2.9	Active	Active
14.2 µM	11.2 µM							CO[C@H]1C[C@@H]2CC[C@@H](C)[C@@](O)(O2)C(=O)C(=O)N2CCCC[C@H]2C(=O)O[C@H]([C@H](C)C[C@@H]2CC[C@@H](O)[C@H](OC)C2)CC(=O)[C@H](C)/C=C(\C)[C@@H](O)[C@@H](OC)C(=O)[C@H](C)C[C@H](C)/C=C/C=C/C=C/1C [SIROLIMUS]						
0.95 µM	13.2 µM	Active		1.17 µM	Active	22.6 µM		CCCCn1c2ccc(/C=C/c3ccc(N(c4ccccc4)c4ccccc4)cc3)cc2c2cc(C3=C4C=CC=[N+]4[B-](F)(F)n4cccc43)ccc21	>19.33	Active	Active	13.84	Active	
